Source: patent US7928139B2 (Amgen Inc., priority 2006, dated 2011)

Target: HIF PHD2 (Homo sapiens, UniProt Q9GZT9)
Experiment: PHD2 inhibition assay (TR-FRET, VCB-Eu detection of hydroxylated P564-HIF1α peptide)
Type: biochemical
Conditions: 2 nM PHD2, 100 nM P564-HIF1α peptide, 0.25 μM 2-oxoglutarate, 100 μM FeCl2, 2 mM ascorbic acid
Method: Inhibition of HIF PHD2 activity was quantified utilizing the TR-FRET technology. HIF PHD2 catalyzes a hydroxyl modification on the proline residue of the P564-HIF1α peptide substrate (Biotin-DLEMLAPYIPMDDDFQL (SEQ ID NO: 7)) resulting in recognition and binding of the europylated Von Hippel-Lindau protein (pVHL), elongin B and elongin C heterotrimeric (VCB-Eu) complex.
The PHD2 inhibition assay was executed by addition of freshly dissolved FeCl2 to 178.57 μM (100 μM final concentration) in PHD2 Reaction Buffer containing 30 mM MES, pH 6, 10 mM NaCl, 0.25% Brij-35, 0.01% BSA, and 1% DMSO. 28 μL of the iron solution and 2 μL of inhibitor compounds serially diluted in 100% DMSO (5% DMSO final) were added to black polypropylene 96-well microtiter plates. To that, 10 μL of 10 nM PHD2 (2 nM final) was added to all wells of the plate except for the 8 wells of column 12 (LO control), and allowed to incubate at room temperature on the shaker for one hour. Column 6 was the HI control containing PHD2 enzyme and 5% DMSO vehicle, but no inhibitor compound. To initiate the PHD2 enzymatic reaction, 10 μL of a solution containing 500 nM P564-HIF1α peptide (100 nM final), 10 mM ascorbic acid (2 mM final), and 1.25 μM 2-oxoglutarate (α-ketoglutarate; 0.25 μM final) in PHD2 Reaction Buffer was added to all wells of the plate and allowed to incubate on the shaker at room temperature for one hour.
The reaction was terminated by addition of 25 μL TR-FRET Buffer (50 mM TRIS-HCl, pH 9, 100 mM NaCl, 0.05% BSA, and 0.5% Tween-20) containing 150 mM succinate (product inhibitor; 50 mM final), 75 nM streptavidin-APC (25 nM final), and 7.5 nM VCB-Eu (2.5 nM final). The TR-FRET detection reagents were placed on a shaker for 1 hour to reach binding equilibrium before reading on the Discovery platform (PerkinElmer). Europium is excited at 315 nm and phosphoresces at 615 nm with a large Stoke's shift. APC, in turn, emits at 655 nm upon excitation at 615 nm. The TR-FRET signal is measured as the ratio of the APC 655 nm signal divided by the internal europium reference 615 nm emission signal.
The POC (percentage of control) was determined by comparing the signal from hydroxylated peptide substrate in the enzyme reaction containing inhibitor compound with that from PHD2 enzyme with DMSO vehicle alone (HI control), and no enzyme (LO control). POC was calculated using the formula: % control (POC)=(cpd−average LO)/(average HI−average LO)*100. Data (consisting of POC and inhibitor concentration in μM) was fitted to a 4-parameter equation (y=A+((B−A)/(1+((x/C)^D))), where A is the minimum y (POC) value, B is the maximum y (POC), C is the x (cpd concentration) at the point of inflection and D is the slope factor) using a Levenburg-Marquardt non-linear regression algorithm.

Sequence of HIF PHD2 (Q9GZT9 whole entry): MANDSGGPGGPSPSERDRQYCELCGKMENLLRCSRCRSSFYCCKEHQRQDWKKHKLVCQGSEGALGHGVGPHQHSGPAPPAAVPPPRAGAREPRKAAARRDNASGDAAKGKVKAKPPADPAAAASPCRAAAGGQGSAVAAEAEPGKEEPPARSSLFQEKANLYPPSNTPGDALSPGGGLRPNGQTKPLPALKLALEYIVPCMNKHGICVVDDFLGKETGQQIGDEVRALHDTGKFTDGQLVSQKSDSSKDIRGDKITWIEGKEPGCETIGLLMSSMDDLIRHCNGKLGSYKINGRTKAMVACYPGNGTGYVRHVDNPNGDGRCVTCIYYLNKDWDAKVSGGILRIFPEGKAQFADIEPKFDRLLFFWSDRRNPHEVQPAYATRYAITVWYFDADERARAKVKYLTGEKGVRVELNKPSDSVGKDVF

For `COc1cccc2c1C(O)=C(C(=O)NCC(=O)O)C(=O)C21CCOCC1` [Example 18, N-((5-Methoxy-4-hydroxy-2-oxo-2′,3′,5′,6′-tetrahydro-spiro[naphthalene-1,4′-pyran]-3-yl)carbonyl)glycine], which IC50 is on record?
The IC50 was < 100 nM.

How did the IC50 turn out when `COc1ccc2c(c1)C1(CCOCC1)C(=O)C(C(=O)NCC(=O)O)=C2O` [Example 19, N-((4-Hydroxy-7-(methyloxy)-2-oxo-2′,3′,5′,6′-tetrahydro-spiro[naphthalene-1,4′-pyran]-3-yl)carbonyl)glycine] was run?
Its IC50 is < 100 nM.

For `CC1(C)C(=O)C(C(=O)NCC(=O)O)=C(O)c2ccc(OCc3ccccc3)c(F)c21` [Example 20, N-((8-Fluoro-4-hydroxy-1,1-dimethyl-2-oxo-7-((phenylmethyl)oxy)-naphthalen-3-yl)carbonyl)glycine], which IC50 is on record?
The IC50 was 100 to 500 nM.

For `CC(C)COc1ccc2c(c1F)C(C)(C)C(=O)C(C(=O)NCC(=O)O)=C2O` [Example 21, N-((8-Fluoro-4-hydroxy-1,1-dimethyl-7-((2-methylpropyl)oxy)-2-oxo-naphthalen-3-yl)carbonyl)glycine], which IC50 is on record?
Its IC50 is 100 to 500 nM.

How did the IC50 turn out when `COc1ccc2c(c1F)C(C)(C)C(=O)C(C(=O)NCC(=O)O)=C2O` [Example 22, N-((8-Fluoro-4-hydroxy-1,1-dimethyl-7-(methyloxy)-2-oxo-naphthalen-3-yl)carbonyl)glycine] was run?
The IC50 was 100 to 500 nM.

`CC1(C)C(=O)C(C(=O)NCC(=O)O)=C(O)c2ccc(O)c(F)c21` [Example 23, N-((8-Fluoro-4,7-dihydroxy-1,1-dimethyl-2-oxo-naphthalen-3-yl)carbonyl)glycine] was tested. Which IC50 did it give?
Its IC50 is < 100 nM.

For `CC1(C)C(=O)C(C(=O)NCC(=O)O)=C(O)c2ccc(F)c(F)c21` [Example 24, N-((7,8-Difluoro-4-hydroxy-1,1-dimethyl-2-oxo-naphthalen-3-yl)carbonyl)glycine], which IC50 is on record?
Its IC50 is < 100 nM.

For `O=C(O)CNC(=O)C1=C(O)c2cc(Cl)ccc2C2(CCCC2)C1=O` [Example 25, N-((6′-Chloro-4′-hydroxy-2′-oxo-spiro[cyclopentane-1,1′-naphthalen]-3′-yl)carbonyl)glycine], which IC50 is on record?
Its IC50 is 100 to 500 nM.

How did the IC50 turn out when `CC1(C)C(=O)C(C(=O)NCC(=O)O)=C(O)c2c(C(F)(F)F)cccc21` [Example 26, N-((4-Hydroxy-1,1-dimethyl-2-oxo-5-(trifluoromethyl)-naphthalen-3-yl)carbonyl)glycine] was run?
Its IC50 is 100 to 500 nM.

For `CC1(C)C(=O)C(C(=O)NCC(=O)O)=C(O)c2cccc(F)c21` [Example 27, N-((8-Fluoro-4-hydroxy-1,1-dimethyl-2-oxo-naphthalen-3-yl)carbonyl)glycine], which IC50 is on record?
The IC50 was < 100 nM.

With `CC1(C#N)C(=O)C(C(=O)NCC(=O)O)=C(O)c2ccccc21` (centres unmarked) [Example 28, N-((1-Cyano-4-hydroxy-1-methyl-2-oxo-naphthalen-3-yl)carbonyl)glycine] as the compound, how does the IC50 read?
Its IC50 is < 100 nM.

Which IC50 does the source give for `CC1(C)C(=O)C(C(=O)NCC(=O)O)=C(O)c2ccc(Cl)c(Cl)c21` [Example 31, N-((7,8-Dichloro-4-hydroxy-1,1-dimethyl-2-oxo-naphthalen-3-yl)carbonyl)glycine] here?
The IC50 was < 100 nM.

For `CC1(C)C(=O)C(C(=O)NCC(=O)O)=C(O)c2cc(-c3ccc(F)cc3)ccc21` [Example 32, N-((6-(4-Fluorophenyl)-4-hydroxy-1,1-dimethyl-2-oxo-naphthalen-3-yl)carbonyl)glycine], which IC50 is on record?
Its IC50 is 100 to 500 nM.

With `CSc1ccc2c(c1)C(O)=C(C(=O)NCC(=O)O)C(=O)C2(C)C` [Example 33, N-((4-Hydroxy-1,1-dimethyl-6-(methylthio)-2-oxo-naphthalen-3-yl)carbonyl)glycine] as the compound, how does the IC50 read?
The IC50 was < 100 nM.

`CC1(c2ccc(Cl)cc2)C(=O)C(C(=O)NCC(=O)O)=C(O)c2cc(Cl)ccc21` (centres unmarked) [Example 34, N-((6-Chloro-1-(4-chlorophenyl)-4-hydroxy-1-methyl-2-oxo-naphthalen-3-yl)carbonyl)glycine] was tested. Which IC50 did it give?
The IC50 was 100 to 500 nM.

Which IC50 does the source give for `CN(C)c1ccccc1-c1ccc2c(c1)C(O)=C(C(=O)NCC(=O)O)C(=O)C2(C)C` [Example 35, N-((6-(2-(Dimethylamino)phenyl)-4-hydroxy-1,1-dimethyl-2-oxo-naphthalen-3-yl)carbonyl)glycine] here?
The IC50 was 100 to 500 nM.

How did the IC50 turn out when `CN(C)c1ccc(-c2ccc3c(c2)C(O)=C(C(=O)NCC(=O)O)C(=O)C3(C)C)cc1` [Example 36, N-((6-(4-(Dimethylamino)phenyl)-4-hydroxy-1,1-dimethyl-2-oxo-naphthalen-3-yl)carbonyl)glycine] was run?
Its IC50 is 100 to 500 nM.

Which IC50 does the source give for `CC1(C)C(=O)C(C(=O)NCC(=O)O)=C(O)c2cc(-c3ccccc3Cl)ccc21` [Example 37] here?
The IC50 was 500 to 1000 nM.

Which IC50 does the source give for `CC1(C)C(=O)C(C(=O)NCC(=O)O)=C(O)c2cc(-c3ccc(Cl)cc3)ccc21` [Example 38, N-((6-(4-Chlorophenyl)-4-hydroxy-1,1-dimethyl-2-oxo-naphthalen-3-yl)carbonyl)glycine] here?
Its IC50 is 500 to 1000 nM.

`CN(C)c1cccc(-c2ccc3c(c2)C(O)=C(C(=O)NCC(=O)O)C(=O)C3(C)C)c1` [Example 39, N-((6-(3-(Dimethylamino)phenyl)-4-hydroxy-1,1-dimethyl-2-oxo-naphthalen-3-yl)carbonyl)glycine] was tested. Which IC50 did it give?
The IC50 was 100 to 500 nM.

With `CC1(C)C(=O)C(C(=O)NCC(=O)O)=C(O)c2cc(Br)ccc21` [Example 40, N-((6-Bromo-4-hydroxy-1,1-dimethyl-2-oxo-naphthalen-3-yl)carbonyl)glycine] as the compound, how does the IC50 read?
The IC50 was < 100 nM.

With `CC1(C)C(=O)C(C(=O)NCC(=O)O)=C(O)c2ccc(C#N)cc21` [Example 41, N-((7-Cyano-4-hydroxy-1,1-dimethyl-2-oxo-naphthalen-3-yl)carbonyl)glycine] as the compound, how does the IC50 read?
Its IC50 is < 100 nM.

`CC1(C)C(=O)C(C(=O)NCC(=O)O)=C(O)c2cc(C#N)ccc21` [Example 42, N-((6-Cyano-4-hydroxy-1,1-dimethyl-2-oxo-naphthalen-3-yl)carbonyl)glycine] was tested. Which IC50 did it give?
Its IC50 is < 100 nM.

For `CCC1(C)C(=O)C(C(=O)NCC(=O)O)=C(O)c2ccc(Cl)cc21` (centres unmarked) [Example 43, N-((7-Chloro-1-ethyl-4-hydroxy-1-methyl-2-oxo-naphthalen-3-yl)carbonyl)glycine], which IC50 is on record?
The IC50 was 100 to 500 nM.

With `O=C(O)CNC(=O)C1=C(O)c2ccc(F)cc2C2(CCOCC2)C1=O` [Example 44, N-((7-Fluoro-4-hydroxy-2-oxo-2′,3′,5′,6′-tetrahydro-spiro[naphthalene-1,4′-pyran]-3-yl)carbonyl)glycine] as the compound, how does the IC50 read?
Its IC50 is < 100 nM.

Which IC50 does the source give for `O=C(O)CNC(=O)C1=C(O)c2ccc(C(F)(F)F)cc2C2(CCOCC2)C1=O` [Example 45, N-((7-Trifluoromethyl-4-hydroxy-2-oxo-2′,3′,5′,6′-tetrahydro-spiro[naphthalene-1,4′-pyran]-3-yl)carbonyl)glycine] here?
The IC50 was < 100 nM.

With `O=C(O)CNC(=O)C1=C(O)c2ccc(Cl)cc2C2(CCOCC2)C1=O` [Example 46, N-((7-Chloro-4-hydroxy-2-oxo-2′,3′,5′,6′-tetrahydro-spiro[naphthalene-1,4′-pyran]-3-yl)carbonyl)glycine] as the compound, how does the IC50 read?
The IC50 was < 100 nM.

Which IC50 does the source give for `CC1(C)C(=O)C(C(=O)NCC(=O)O)=C(O)c2ccc(F)cc21` [Example 47, N-((7-Fluoro-4-hydroxy-1,1-dimethyl-2-oxo-naphthalen-3-yl)carbonyl)glycine] here?
Its IC50 is < 100 nM.

For `CC1(C)C(=O)C(C(=O)NCC(=O)O)=C(O)c2ccc(Cl)cc21` [Example 48, N-((7-Chloro-4-hydroxy-1,1-dimethyl-2-oxo-naphthalen-3-yl)carbonyl)glycine], which IC50 is on record?
Its IC50 is < 100 nM.

With `CC1(C)C(=O)C(C(=O)NCC(=O)O)=C(O)c2ccc(C(F)(F)F)cc21` [Example 49, N-((7-Trifluoromethyl-4-hydroxy-1,1-dimethyl-2-oxo-naphthalen-3-yl)carbonyl)glycine] as the compound, how does the IC50 read?
Its IC50 is < 100 nM.

`C[C@H](NC(=O)C1=C(O)c2ccc(Br)cc2C(C)(C)C1=O)C(=O)O` [Example 50, N-((7-Bromo-4-hydroxy-1,1-dimethyl-2-oxo-naphthalen-3-yl)carbonyl)-L-alanine] was tested. Which IC50 did it give?
The IC50 was 100 to 500 nM.

How did the IC50 turn out when `CC1(C)C(=O)C(C(=O)NCC(=O)O)=C(O)c2ccc(-c3cccnc3)cc21` [Example 51, N-((7-(3-Pyridyl)-4-hydroxy-1,1-dimethyl-2-oxo-naphthalene-3-yl)carbonyl)glycine] was run?
The IC50 was < 100 nM.
